“And” between values parts separate entries of the source, which are not always exact repeats. Equal entries are not always repeated.
Columns and labels:
hSGLT2 S74A = target: T1, hSGLT2 S74A (Homo sapiens, UniProt P31639, S74A); assay: cell-based
T1 construct: expressed in transfected cells; host or cells: Expi293 cells, crude membrane fraction
Description: (§1) hSGLT2 complementary DNA and human MAP17 cDNA were synthesized and codon-optimized for expression in human cell lines. Both cDNAs were cloned into the pcDNA3.4 vector. The hSGLT2 sequence was fused with an N-terminal signal sequence from human trypsinogen 1, a His10 tag, and sfGFP, followed by a human rhinovirus 3C protease (HRV3C protease) recognition site. Point mutations were introduced into this construct using site-directed mutagenesis. These plasmids were utilized for all experimental procedures conducted in this study.
HEK293 cells (ECACC 85120602) were maintained in Dulbecco’s modified Eagle medium (Gibco) supplemented with 10% fetal bovine serum (Thermo Scientific), 2 mM L-glutamine, 100 U ml^−1 benzylpenicillin and 100 µg ml^−1 streptomycin at 37 °C in a humidified atmosphere (5% CO2 in air). HEK293 cells were seeded at 1.0 × 10^5 cells per well in poly-L-lysine coated 24-well plates. […]
Cell lysates were deproteinized by adding acetonitrile containing candesartan as the internal standard. The α-MG concentration was quantified via liquid chromatography–tandem mass spectrometry (LC–MS/MS) using the internal standard method.
Cellular protein content was determined using a bicinchoninic acid protein assay kit (Thermo Fisher Scientific). The uptake of α-MG was expressed as the ratio of concentration in the cells (in pmol per mg protein) to concentration in the medium (in pmol μl^−1); this is known as the cell-to-medium ratio (in μl per mg protein).
In the inhibition study, the cell-to-medium ratio of cells transfected with the empty vector was used as the background. The specific α-MG uptake was calculated by subtracting this background from the total cell-to-medium ratio and normalized to the uptake achieved without the inhibitor. IC50 was calculated via nonlinear regression using GraphPad Prism 8.4.3.
The concentrations of the extract solution from the filter plate and of the cell lysate were quantified using a tandem mass spectrometry QTRAP6500 System (SCIEX) coupled with an ACQUITY UPLC system (Waters) using the internal standard method. […]

hSGLT2 F98A = target: T2, hSGLT2 F98A (Homo sapiens, UniProt P31639, F98A); assay: SGLT2 inhibitor-binding assay (AS-MS), crude membrane, F98A mutant; parameters: expressed in transfected cells; host or cells: Expi293 cells, crude membrane fraction; settings: 30 nM canagliflozin, replicates
T2 sequence (P31639 1-672 F98A): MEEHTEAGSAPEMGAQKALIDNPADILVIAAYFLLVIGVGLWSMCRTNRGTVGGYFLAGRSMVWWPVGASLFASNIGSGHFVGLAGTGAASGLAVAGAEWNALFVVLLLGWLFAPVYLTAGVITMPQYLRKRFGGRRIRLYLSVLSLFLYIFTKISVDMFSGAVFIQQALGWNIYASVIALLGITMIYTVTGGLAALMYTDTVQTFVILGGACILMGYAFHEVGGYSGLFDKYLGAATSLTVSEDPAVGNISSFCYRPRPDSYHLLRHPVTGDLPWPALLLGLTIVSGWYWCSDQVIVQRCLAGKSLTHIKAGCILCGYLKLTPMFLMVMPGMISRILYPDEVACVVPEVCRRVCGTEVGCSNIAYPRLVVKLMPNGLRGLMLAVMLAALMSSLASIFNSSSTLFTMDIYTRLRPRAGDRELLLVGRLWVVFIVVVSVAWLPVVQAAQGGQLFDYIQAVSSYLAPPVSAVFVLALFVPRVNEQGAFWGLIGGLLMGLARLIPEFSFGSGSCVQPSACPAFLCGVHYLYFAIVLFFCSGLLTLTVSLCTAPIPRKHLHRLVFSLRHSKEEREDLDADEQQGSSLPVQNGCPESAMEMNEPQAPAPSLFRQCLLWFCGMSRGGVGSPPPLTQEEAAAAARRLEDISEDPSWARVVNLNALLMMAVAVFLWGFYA
T2 sequence (Q13113 1-114 partner): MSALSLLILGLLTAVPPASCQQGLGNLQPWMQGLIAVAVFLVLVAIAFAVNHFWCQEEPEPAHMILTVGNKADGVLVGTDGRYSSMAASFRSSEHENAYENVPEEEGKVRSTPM
Description: as §1
To examine the inhibition of binding to the crude membrane, mammalian Expi293 cells were co-transfected with the hMAP17 and hSGLT2 plasmids, as described. […] The extract solution from the filter plate was diluted with water containing candesartan as an internal standard, and the SGLT2 inhibitor concentration was quantified via LC–MS/MS.
Nonspecific binding was measured using the crude membrane of nontransfected Expi293 cells. Specific binding was calculated by subtracting nonspecific binding from the binding of hSGLT2-expressing cells. Specific binding was normalized to hSGLT2 protein expression levels, measured via FSEC. The equilibrium dissociation constant (Kd) and maximum number of binding sites (Bmax) were calculated via nonlinear regression in GraphPad Prism 8.4.3. […]

T1 sequence (P31639 whole entry S74A, one chain of several): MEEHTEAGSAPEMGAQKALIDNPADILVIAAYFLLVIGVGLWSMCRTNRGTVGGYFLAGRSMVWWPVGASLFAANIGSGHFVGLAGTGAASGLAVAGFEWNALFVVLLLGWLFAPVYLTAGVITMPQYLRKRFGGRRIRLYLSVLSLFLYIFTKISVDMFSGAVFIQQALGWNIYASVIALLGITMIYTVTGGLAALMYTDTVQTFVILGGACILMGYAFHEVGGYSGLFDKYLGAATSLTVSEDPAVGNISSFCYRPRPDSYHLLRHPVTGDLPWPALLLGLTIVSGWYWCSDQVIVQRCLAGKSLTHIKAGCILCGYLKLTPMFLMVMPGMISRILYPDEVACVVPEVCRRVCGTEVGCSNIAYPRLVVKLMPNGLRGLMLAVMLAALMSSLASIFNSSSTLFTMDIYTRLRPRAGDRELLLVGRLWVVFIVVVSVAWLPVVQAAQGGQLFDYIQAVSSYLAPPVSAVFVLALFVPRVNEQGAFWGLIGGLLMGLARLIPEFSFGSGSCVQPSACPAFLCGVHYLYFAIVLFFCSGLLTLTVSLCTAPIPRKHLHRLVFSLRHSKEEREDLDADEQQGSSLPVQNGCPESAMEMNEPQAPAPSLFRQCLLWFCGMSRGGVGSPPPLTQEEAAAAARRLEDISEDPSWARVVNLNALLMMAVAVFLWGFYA

Structure (SMILES) | remaining activity at 0.003 µM (hSGLT2 S74A; HEK293, read-out: α-MG uptake (% of control), Phlorizin 3 nM) | remaining activity at 0.03 µM (hSGLT2 S74A; HEK293, read-out: α-MG uptake (% of control), Phlorizin 30 nM) | remaining activity at 0.1 µM (hSGLT2 S74A; HEK293, read-out: α-MG uptake (% of control), Phlorizin 100 nM) | Canagliflozin binding (% of WT) (hSGLT2 F98A)
O=C(CCc1ccc(O)cc1)c1c(O)cc(O)cc1O[C@@H]1O[C@H](CO)[C@@H](O)[C@H](O)[C@H]1O [Phlorizin] | 95.3% | 80.6% | 70.1% | 
Cc1ccc([C@@H]2O[C@H](CO)[C@@H](O)[C@H](O)[C@H]2O)cc1Cc1ccc(-c2ccc(F)cc2)s1 [Canagliflozin] |  |  |  | -6.142 % of WT and -5.964 % of WT and -3.041 % of WT

From PMC10803289, “Transport and inhibition mechanism of the human SGLT2–MAP17 glucose transporter” (Nature Structural & Molecular Biology, 2023)
